Measured values from patent US6911453B2 (Aventis Pharma Deutschland GmbH, priority 2001, dated 2005).
Where a name gives a salt, the structure may show the parent alone.

Biological target: T1, NHE3 (Homo sapiens, UniProt P48764)
T1 sequence (P48764 1-834): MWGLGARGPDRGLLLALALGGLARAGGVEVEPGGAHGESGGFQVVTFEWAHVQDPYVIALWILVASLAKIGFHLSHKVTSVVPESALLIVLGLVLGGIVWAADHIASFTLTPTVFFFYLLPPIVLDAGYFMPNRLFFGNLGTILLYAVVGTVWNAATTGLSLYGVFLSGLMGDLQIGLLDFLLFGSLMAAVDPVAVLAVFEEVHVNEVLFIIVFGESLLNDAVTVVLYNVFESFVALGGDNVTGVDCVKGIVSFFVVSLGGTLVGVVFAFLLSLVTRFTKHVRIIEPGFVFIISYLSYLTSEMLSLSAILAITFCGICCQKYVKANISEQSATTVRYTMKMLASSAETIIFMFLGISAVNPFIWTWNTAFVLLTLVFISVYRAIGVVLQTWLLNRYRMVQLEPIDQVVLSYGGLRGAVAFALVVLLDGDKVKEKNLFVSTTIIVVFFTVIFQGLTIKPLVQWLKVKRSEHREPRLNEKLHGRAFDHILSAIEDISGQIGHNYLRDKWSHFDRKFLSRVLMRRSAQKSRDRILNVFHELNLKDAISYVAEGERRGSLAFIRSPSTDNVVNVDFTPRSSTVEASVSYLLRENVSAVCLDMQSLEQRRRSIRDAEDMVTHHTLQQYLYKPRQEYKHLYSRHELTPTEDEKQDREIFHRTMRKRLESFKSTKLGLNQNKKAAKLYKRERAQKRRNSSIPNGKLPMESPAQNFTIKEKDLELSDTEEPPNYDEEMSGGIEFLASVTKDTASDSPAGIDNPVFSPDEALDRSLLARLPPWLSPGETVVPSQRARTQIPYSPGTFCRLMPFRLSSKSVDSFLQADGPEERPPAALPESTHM
Test: Recovery of intracellular pH (pHi) after acidification, BCECF fluorescence, NHE3
Type: cell-based
Details: inhibition of pH recovery after intracellular acidification; rate recorded for three minutes; BCECF-loaded cells
Procedure: In this test, the recovery in the intracellular pH (pHi) after an acidification is ascertained, which is initiated if the NHE is capable of functioning, even under bicarbonate-free conditions. For this purpose, the pHi was determined using the pH-sensitive fluorescent dye BCECF (Calbiochem, the precursor BCECF-AM is employed).
The cells were initially loaded with BCECF. The BCECF fluorescence was determined in a “Ratio Fluorescence Spectrometer” (Photon Technology International, South Brunswick, N.J., USA) at excitation wavelengths of 505 and 440 nm and an emission wavelength of 535 nm and converted into the pHi using calibration curves. The cells were incubated in NH4Cl buffer (pH 7.4) (NH4Cl buffer: 115 mM NaCl, 20 mM NH4Cl, 5 mM KCl, 1 mM CaCl2, 1 mM MgSO4, 20 mM Hepes, 5 mM glucose, 1 mg/ml BSA; a pH of 7.4 is adjusted with 1 M NaOH) even during the BCECF loading. The intracellular acidification was induced by adding 975 μl of an NH4Cl-free buffer (see below) to 25 μl aliquots of the cells incubated in NH4Cl buffer. The subsequent rate of pH recovery was recorded for two minutes with NHE1, five minutes with NHE2 and three minutes with NHE3. To calculate the inhibitory potency of the tested substances, the cells were initially investigated in buffers with which a complete or absolutely no pH recovery took place. For complete pH recovery (100%), the cells were incubated in Na^+-containing buffer (133.8 mM NaCl, 4.7 mM KCl, 1.25 mM CaCl2, 1.25 mM MgCl2, 0.97 mM Na2HPO4, 0.23 mM NaH2PO4, 5 mM Hepes, 5 mM glucose, a pH of 7.0 is adjusted with 1 M NaOH). To determine the 0% value, the cells were incubated in an Na^+-free buffer (133.8 mM choline chloride, 4.7 mM KCl, 1.25 mM CaCl2, 1.25 mM MgCl2, 0.97 mM K2HPO4, 0.23 mM KH2PO4, 5 mM Hepes, 5 mM glucose, a pH of 7.0 is adjusted with 1 M NaOH). The substances to be tested were made up in the Na^+-containing buffer. The recovery of the intracellular pH at each test concentration of a substance was expressed as a percentage of the maximum recovery. The IC50 value for the particular substance for the individual NHE subtypes was calculated from the pH recovery percentages using the Sigma-Plot program.

| Structure (SMILES) | IC50 |
| --- | --- |
| CN1Cc2c(Cl)cc(Cl)cc2C(c2ccc(S(N)(=O)=O)cc2)C1 (single isomer, unassigned; (+)) [Example 2a, (+)-4-(6,8-Dichloro-2-methyl-1,2,3,4-tetrahydro-isoquinolin-4-yl)-benzene-sulfonamide hydrochloride] | 0.082 µM |
| CC(=O)Nc1ccc(C2CN(C)Cc3c(Cl)cc(Cl)cc32)cc1.Cl (stereo not shown) [Example 1a, N-[4-(6,8-Dichloro-2-methyl-1,2,3,4-tetrahydro-isoquinolin-4-yl)-phenyl]-acetamide-hydrochloride] | 0.075 µM |
| CCNC(=O)c1ccc(C2CN(C)Cc3c(Cl)cc(Cl)cc32)cc1 (stereo not shown) [Example 7, 4-(6,8-Dichloro-2-methyl-1,2,3,4-tetrahydroisoquinolin-4-yl)-N-ethyl-benzamide, Trifluoroacetate] | 0.25 µM |
| CN1Cc2c(Cl)cc(Cl)cc2C(c2ccc(N)cc2)C1 (stereo not shown) [Example 17, 4-(6,8-Dichloro-2-methyl-1,2,3,4-tetrahydro-isoquinolin-4-yl)-phenylamine, Hydrochloride] | 0.049 µM |
| CC(=O)Nc1ccc(C2CN(C)Cc3c(C)cc(C)cc32)cc1 (stereo not shown) [Example 23, N-[4-(2,6,8-Trimethyl-1,2,3,4-tetrahydro-isoquinolin-4-yl)-phenyl]-acetamide] | 1.51 µM |
| CC(=O)Nc1ccc(C2CN(C)Cc3c(Cl)cc(Br)cc32)cc1 (stereo not shown) [Example 24, N-[4-(6-Bromo-8-chloro-2-methyl-1,2,3,4-tetrahydro-isoquinolin-4-yl)-phenyl]-acetamide] | 0.34 µM |
| CN1Cc2c(Cl)cc(Cl)cc2C(c2ccccc2N)C1 (stereo not shown) [Example 36, 2-(6,8-Dichloro-2-methyl-1,2,3,4-tetrahydro-isoquinolin-4-yl)-phenylamine] | 0.274 µM |
| CNC(=S)Nc1ccccc1C1CN(C)Cc2c(Cl)cc(Cl)cc21 (stereo not shown) [Example 81, 1-[2-(6,8-Dichloro-2-methyl-1,2,3,4-tetrahydro-isoquinolin-4-yl)-phenyl]-3-methyl-thiourea, Trifluoroacetate] | 0.73 µM |
| CN1Cc2c(Cl)cc(Cl)cc2C(c2ccc(NS(=O)(=O)C(F)(F)F)cc2)C1 (stereo not shown) [Example 87] | 0.418 µM |
| CN1Cc2c(Cl)cc(Cl)cc2C(c2ccc(NC(=O)c3cc[nH]c3)cc2)C1 (stereo not shown) [Example 119] | 0.682 µM |
| COC(=O)Nc1cccc(C2CN(C)Cc3c(Cl)cc(Cl)cc32)c1 (stereo not shown) [Example 207, [3-(6,8-Dichloro-2-methyl-1,2,3,4-tetrahydro-isoquinolin-4-yl)-phenyl]-carbamic acid methyl Ester—Hydrochloride Salt] | 0.186 µM |

The next lines start with the values.

| IC50 | Structure (SMILES) |
| --- | --- |
| 0.026 µM | CN1Cc2c(Cl)cc(Cl)cc2C(c2cccc(S(N)(=O)=O)c2)C1 (single isomer, unassigned; (+)) [Example 2b, (+)-3-(6,8-Dichloro-2-methyl-1,2,3,4-tetrahydro-isoquinolin-4-yl)-benzene-sulfonamide hydrochloride] |
| 0.252 µM | CNC(=O)N(C)c1cccc(C2CN(C)Cc3c(Cl)cc(Cl)cc32)c1 (single isomer, unassigned; (+)) [Example 199] |
| 0.67 µM | CN1Cc2c(Cl)cc(Cl)cc2C(c2ccc(C(=O)O)cc2)C1 (stereo not shown) [Example 6, 4-(6,8-Dichloro-2-methyl-1,2,3,4-tetrahydro-isoquinolin-4-yl)-benzoic acid] |
| 1 µM | CN1Cc2c(Cl)cc(Cl)cc2C(c2ccc(N3CCOCC3)cc2)C1 (stereo not shown) [Example 10, 6,8-Dichloro-2-methyl-4-(4-morpholin-4-yl-phenyl)-1,2,3,4-tetrahydroisoquinoline, Trifluoroacetate] |
| 0.814 µM | CCNC(=O)Nc1ccc(C2CN(C)Cc3c(Cl)cc(Cl)cc32)cc1 (stereo not shown) [Example 21, 1-[4-(6,8-Dichloro-2-methyl-1,2,3,4-tetrahydro-isoquinolin-4-yl)-phenyl]-3-ethylurea] |
| 0.318 µM | CN1Cc2c(Cl)cc(Cl)cc2C(c2ccc(O)c(C(=O)O)c2)C1 (stereo not shown) [Example 29, 5-(6,8-Dichloro-2-methyl-1,2,3,4-tetrahydro-isoquinolin-4-yl)-2-hydroxy-benzoic acid] |
| 0.349 µM | CN1Cc2c(Cl)cc(Cl)cc2C(c2ccc(NS(C)(=O)=O)cc2)C1 (stereo not shown) [Example 48] |
| 0.215 µM | CCC(=O)Nc1cccc(C2CN(C)Cc3c(Cl)cc(Cl)cc32)c1 (stereo not shown) [Example 51] |
| 0.202 µM | CC(=O)N1CCC(C(=O)Nc2cccc(C3CN(C)Cc4c(Cl)cc(Cl)cc43)c2)CC1 (stereo not shown) [Example 60] |
| 0.507 µM | CN1Cc2c(Cl)cc(Cl)cc2C(c2cccc(NS(=O)(=O)N(C)C)c2)C1 (stereo not shown) [Example 64] |
| 0.308 µM | Cc1nc(S(=O)(=O)Nc2cccc(C3CN(C)Cc4c(Cl)cc(Cl)cc43)c2)cn1C (stereo not shown) [Example 97] |
| 0.279 µM | CN(C)CC(=O)Nc1ccc(C2CN(C)Cc3c(Cl)cc(Cl)cc32)cc1 (stereo not shown) [Example 113] |
| 0.695 µM | CN1Cc2c(Cl)cc(Cl)cc2C(c2cccc(NC(=O)C3CCN(S(C)(=O)=O)CC3)c2)C1 (stereo not shown) [Example 144] |
| 0.024 µM | CN1Cc2c(Cl)cc(Cl)cc2C(c2cccc(NC(=O)c3cn[nH]c3)c2)C1 (stereo not shown) [Example 146] |
| 0.602 µM | CN1Cc2c(Cl)cc(Cl)cc2C(c2cccc(NC(=O)N3CCCCC3)c2)C1 (stereo not shown) [Example 153] |
| 0.597 µM | CN1Cc2c(Cl)cc(Cl)cc2C(c2ccc(NC(=O)N3CCOCC3)cc2)C1 (stereo not shown) [Example 183] |

System: not given
Test: not given
Details: not given

| Structure (SMILES) | melting point |
| --- | --- |
| CC(=O)Nc1ccc(C2CN(C)Cc3c(Cl)cc(Cl)cc32)cc1 (stereo not shown) | 205 to 206 °C |
| CC(=O)Nc1ccc(C2CN(C)Cc3c(Cl)cc(Cl)cc32)cc1.Cl (stereo not shown) [Example 1a, N-[4-(6,8-Dichloro-2-methyl-1,2,3,4-tetrahydro-isoquinolin-4-yl)-phenyl]-acetamide-hydrochloride] | 125 °C (dec.) |
| CCNC(=O)Nc1ccc(C2CN(C)Cc3c(Cl)cc(Cl)cc32)cc1 (stereo not shown) [Example 21, 1-[4-(6,8-Dichloro-2-methyl-1,2,3,4-tetrahydro-isoquinolin-4-yl)-phenyl]-3-ethylurea] | 218 to 220 °C |
| CN1Cc2c(Cl)cc(Cl)cc2C(c2ccc(Cl)c(S(N)(=O)=O)c2)C1 (stereo not shown) [Example 99] | 122 °C |
